Molecular target: T1, human M4 muscarinic acetylcholine receptor (Homo sapiens, UniProt P08173)
T1 construct: expressed in transfected cells; host or cells: CHO-K1
T1 sequence (P08173 1-479): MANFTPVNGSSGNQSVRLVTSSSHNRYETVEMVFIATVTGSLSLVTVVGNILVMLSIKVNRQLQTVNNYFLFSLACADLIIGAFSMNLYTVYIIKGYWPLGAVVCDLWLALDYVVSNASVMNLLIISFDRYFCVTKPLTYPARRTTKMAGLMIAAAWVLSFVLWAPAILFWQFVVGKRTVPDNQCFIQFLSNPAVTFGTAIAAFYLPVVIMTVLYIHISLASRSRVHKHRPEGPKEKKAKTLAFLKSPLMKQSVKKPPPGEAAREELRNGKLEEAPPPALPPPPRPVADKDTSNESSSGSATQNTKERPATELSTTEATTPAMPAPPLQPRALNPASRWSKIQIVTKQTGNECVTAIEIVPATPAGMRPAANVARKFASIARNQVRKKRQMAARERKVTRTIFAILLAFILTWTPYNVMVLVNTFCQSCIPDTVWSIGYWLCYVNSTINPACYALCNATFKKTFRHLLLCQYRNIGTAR
Assay: human FLIPR-based M4 PAM assay (Ca2+ mobilization, CHO-K1 cells with human M4 receptor and Gαqi5)
Format: cell-based
Conditions: acetylcholine at 20% of maximum response, read-out: M4 PAM IP
How it was run: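 Calcium-mobilization (FLIPR) readout in dye-loaded CHO-K1 cells co-expressing human M4 receptor and Gαqi5. Potentiation measured against acetylcholine at a concentration giving 20% of maximal response, with an optional 70% addition; the reported value is the curve inflection point from a 4-parameter logistic fit.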

| Compound | EC50 |
| --- | --- |
| Cc1c(N2CCC(Oc3ccc4c(c3)C[C@H](O)C4)CC2)nc2c(c1C)C(=O)NC2 [Example 334A, (R)-2-(4-((2-hydroxy-2,3-dihydro-1H-inden-5-yl)oxy)piperidin-1-yl)-3,4-dimethyl-6,7-dihydro-5H-pyrrolo[3,4-b]pyridin-5-one] | 67 nM |
| Cc1c(N2CCC(Oc3ccc4c(c3)C[C@@H](O)C4)CC2)nc2c(c1C)C(=O)NC2 [Example 334B, (S)-2-(4-((2-hydroxy-2,3-dihydro-1H-inden-5-yl)oxy)piperidin-1-yl)-3,4-dimethyl-6,7-dihydro-5H-pyrrolo[3,4-b]pyridin-5-one] | 38 nM |
| CO[C@@H]1Cc2ccc(OC3CCN(c4nc5c(c(C)c4C)C(=O)NC5)CC3)cc2C1 [Example 335A, (R)-2-(4-((2-methoxy-2,3-dihydro-1H-inden-5-yl)oxy)piperidin-1-yl)-3,4-dimethyl-6,7-dihydro-5H-pyrrolo[3,4-b]pyridin-5-one] | 245 nM |
| CO[C@H]1Cc2ccc(OC3CCN(c4nc5c(c(C)c4C)C(=O)NC5)CC3)cc2C1 [Example 335B, (5)-2-(4-((2-methoxy-2,3-dihydro-1H-inden-5-yl)oxy)piperidin-1-yl)-3,4-dimethyl-6,7-dihydro-5H-pyrrolo[3,4-b]pyridin-5-one] | 259 nM |
| Cc1c(N2CCC(Oc3ccc4c(c3)CCOC4)CC2)nc2c(c1C)C(=O)NC2 [Example 336, 2-(4-(isochroman-6-yloxy)piperidin-1-yl)-3,4-dimethyl-6,7-dihydro-5H-pyrrolo[3,4-b]pyridin-5-one] | 182 nM |
| Cc1cc2c(nc1N1CCC(OCC3(C)CC3)CC1)CN(C)C2=O [Example 338, 3,6-dimethyl-2-(4-((1-methylcyclopropyl)methoxy)piperidin-1-yl)-6,7-dihydro-5H-pyrrolo[3,4-b]pyridin-5-one] | 40 nM |
| Cc1cc2c(nc1N1CCC(OCC3(C)CC3)CC1)[C@@H](CO)N(C)C2=O [Example 339, (S)-7-(hydroxymethyl)-3,6-dimethyl-2-(4-((1-methylcyclopropyl)methoxy)piperidin-1-yl)-6,7-dihydro-5H-pyrrolo[3,4-b]pyridin-5-one] | 13 nM |
| Cc1cc2c(nc1N1CCC(OCC3(C)CC3)CC1)[C@H](CO)N(C)C2=O [Example 340, (R)-7-(hydroxymethyl)-3,6-dimethyl-2-(4-((1-methylcyclopropyl)methoxy)piperidin-1-yl)-6,7-dihydro-5H-pyrrolo[3,4-b]pyridin-5-one] | 2980 nM |
| CCc1cc2c(nc1N1CCC(OCC3(C)CC3)CC1)[C@@H](CO)N(C)C2=O [Example 341, (S)-3-ethyl-7-(hydroxymethyl)-6-methyl-2-(4-((1-methylcyclopropyl)methoxy)piperidin-1-yl)-6,7-dihydro-5H-pyrrolo[3,4-b]pyridin-5-one] | 23 nM |
| CCc1cc2c(nc1N1CCC(OCC3(C)CC3)CC1)[C@H](CO)N(C)C2=O [Example 342, (R)-3-ethyl-7-(hydroxymethyl)-6-methyl-2-(4-((1-methylcyclopropyl)methoxy)piperidin-1-yl)-6,7-dihydro-5H-pyrrolo[3,4-b]pyridin-5-one] | 3440 nM |
| Cc1cncc(OC2CCN(c3nc4c(cc3C)C(=O)N(C)[C@@H]4CO)CC2)c1 [Example 343, (S)-7-(hydroxymethyl)-3,6-dimethyl-2-(4-((5-methylpyridin-3-yl)oxy)piperidin-1-yl)-6,7-dihydro-5H-pyrrolo[3,4-b]pyridin-5-one] | 55 nM |
| Cc1cncc(OC2CCN(c3nc4c(cc3C)C(=O)N(C)[C@H]4CO)CC2)c1 [Example 344, (R)-7-(hydroxymethyl)-3,6-dimethyl-2-(4-((5-methylpyridin-3-yl)oxy)piperidin-1-yl)-6,7-dihydro-5H-pyrrolo[3,4-b]pyridin-5-one] | 1220 nM |
| Cc1cc2c(nc1N1CCC(Oc3cccc(C#N)c3)CC1)[C@@H](CO)N(C)C2=O [Example 345, (S)-3-((1-(7-(hydroxymethyl)-3,6-dimethyl-5-oxo-6,7-dihydro-5H-pyrrolo[3,4-b]pyridin-2-yl)piperidin-4-yl)oxy)benzonitrile] | 23 nM |
| Cc1cc2c(nc1N1CCC(Oc3cccc(C#N)c3)CC1)[C@H](CO)N(C)C2=O [Example 346, (R)-3-((1-(7-(hydroxymethyl)-3,6-dimethyl-5-oxo-6,7-dihydro-5H-pyrrolo[3,4-b]pyridin-2-yl)piperidin-4-yl)oxy)benzonitrile] | 3080 nM |
| Cc1cc2c(nc1N1CCC(Oc3ccc(F)c(F)c3)CC1)[C@@H](CO)N(C)C2=O [Example 347, (S)-2-(4-(3,4-difluorophenoxy)piperidin-1-yl)-7-(hydroxymethyl)-3,6-dimethyl-6,7-dihydro-5H-pyrrolo[3,4-b]pyridin-5-one] | 28 nM |
| Cc1cc2c(nc1N1CCC(Oc3ccc(F)c(F)c3)CC1)[C@H](CO)N(C)C2=O [Example 348, (R)-2-(4-(3,4-difluorophenoxy)piperidin-1-yl)-7-(hydroxymethyl)-3,6-dimethyl-6,7-dihydro-5H-pyrrolo[3,4-b]pyridin-5-one] | 8170 nM |
| Cc1cc2c(nc1N1CCC(Oc3ccc4c(c3)COCC4)CC1)[C@@H](CO)N(C)C2=O [Example 349, (S)-7-(hydroxymethyl)-2-(4-(isochroman-7-yloxy)piperidin-1-yl)-3,6-dimethyl-6,7-dihydro-5H-pyrrolo[3,4-b]pyridin-5-one] | 22 nM |
| Cc1cc2c(nc1N1CCC(Oc3ccc4c(c3)COCC4)CC1)[C@H](CO)N(C)C2=O [Example 350, (R)-7-(hydroxymethyl)-2-(4-(isochroman-7-yloxy)piperidin-1-yl)-3,6-dimethyl-6,7-dihydro-5H-pyrrolo[3,4-b]pyridin-5-one] | 980 nM |
| CCc1cc2c(nc1N1CCC(Oc3ccc4c(c3)COC4)CC1)[C@@H](CO)N(C)C2=O [Example 351, (S)-2-(4-((1,3-dihydro-2-benzofuran-5-yl)oxy)piperidin-1-yl)-3-ethyl-7-(hydroxymethyl)-6-methyl-6,7-dihydro-5H-pyrrolo[3,4-b]pyridin-5-one] | 40 nM |
| CCc1cc2c(nc1N1CCC(Oc3ccc4c(c3)COC4)CC1)[C@H](CO)N(C)C2=O [Example 352, can-2-(4-((1,3-dihydro-2-benzofuran-5-yl)oxy)piperidin-1-yl)-3-ethyl-7-(hydroxymethyl)-6-methyl-6,7-dihydro-5H-pyrrolo[3,4-b]pyridin-5-one] | 2100 nM |
| Cc1c(N2CCC(Oc3ccc(F)cc3)CC2)nc2c(c1C)C(=O)N(C)[C@@H]2CO [Example 353, (S)-2-(4-(4-fluorophenoxy)piperidin-1-yl)-7-(hydroxymethyl)-3,4,6-trimethyl-6,7-dihydro-5H-pyrrolo[3,4-b]pyridin-5-one] | 30 nM |

Further lines, results first:

| EC50 | Compound |
| --- | --- |
| 650 nM | Cc1c(N2CC[C@@H](Oc3cnn(C)c3)C(F)(F)C2)nc2c(c1C)C(=O)NC2 [Example 336B, (R)-2-(3,3-difluoro-4-((1-methyl-1H-pyrazol-4-yl)oxy)piperidin-1-yl)-3,4-dimethyl-6,7-dihydro-5H-pyrrolo[3,4-b]pyridin-5-one] |
| 33 nM | Cc1c(N2CC[C@H](Oc3cnn(C)c3)C(F)(F)C2)nc2c(c1C)C(=O)NC2 [Example 336C, (S)-2-(3,3-difluoro-4-((l-methyl-1H-pyrazol-4-yl)oxy)piperidin-1-yl)-3,4-dimethyl-6,7-dihydro-5H-pyrrolo[3,4-b]pyridin-5-one] |
| 9 nM | Cc1c(N2CC[C@@H](OCC3(C)CC3)[C@@H](F)C2)nc2c(c1C)C(=O)N(C)[C@@H]2CO [Example 341A, (S)-2-((3S,4R)-3-fluoro-4-((1-methylcyclopropyl)methoxy)piperidin-1-yl)-7-(hydroxymethyl)-3,4,6-trimethyl-6,7-dihydro-5H-pyrrolo[3,4-b]pyridin-5-one] |
| 884 nM | Cc1c(N2CC[C@@H](OCC3(C)CC3)[C@@H](F)C2)nc2c(c1C)C(=O)N(C)[C@H]2CO [Example 342A, (R)-2-((3S,4R)-3-fluoro-4-((1-methylcyclopropyl)methoxy)piperidin-1-yl)-7-(hydroxymethyl)-3,4,6-trimethyl-6,7-dihydro-5H-pyrrolo[3,4-b]pyridin-5-one] |
| 27 nM | COc1ccc(OC2CCN(c3nc4c(c(C)c3C)C(=O)N(C)[C@@H]4CO)CC2)cn1 [Example 343A, (S)-7-(hydroxymethyl)-2-(4-((6-methoxypyridin-3-yl)oxy)piperidin-1-yl)-3,4,6-trimethyl-6,7-dihydro-5H-pyrrolo[3,4-b]pyridin-5-one] |
| 760 nM | COc1ccc(OC2CCN(c3nc4c(c(C)c3C)C(=O)N(C)[C@H]4CO)CC2)cn1 [Example 344A, (R)-7-(hydroxymethyl)-2-(4-((6-methoxypyridin-3-yl)oxy)piperidin-1-yl)-3,4,6-trimethyl-6,7-dihydro-5H-pyrrolo[3,4-b]pyridin-5-one] |
| 22 nM | Cc1cc2c(nc1N1CCC(Oc3ccc4c(c3)CCOC4)CC1)[C@@H](CO)N(C)C2=O [Example 349A, (S)-7-(hydroxymethyl)-2-(4-(isochroman-6-yloxy)piperidin-1-yl)-3,6-dimethyl-6,7-dihydro-5H-pyrrolo[3,4-b]pyridin-5-one] |
| 19 nM | CCN1C(=O)c2c(nc(N3CCC(Oc4ccc5c(c4)COC5)CC3)c(C)c2C)[C@H]1CO [Example 351A, (S)-2-(4-((1,3-dihydroisobenzofuran-5-yl)oxy)piperidin-1-yl)-6-ethyl-7-(hydroxymethyl)-3,4-dimethyl-6,7-dihydro-5H-pyrrolo[3,4-b]pyridin-5-one] |

From patent publication US10329289B2, “6,7-dihydro-5H-pyrrolo[3,4-B]pyridin-5-one allosteric modulators of the M4 muscarinic acetylcholine receptor” (Merck Sharp & Dohme Corp., priority 2015, dated 2019)
